# According to patent US10227346B2, “Methyl- and trifluoromethyl-substituted pyrrolopyridine modulators of RORC2 and methods of use therof” (Pfizer Inc., priority 2014, dated 2019):
# pIC50: −log10 of the molar value.
# Tested on: IL-17 production from human Th17 cells;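 further: purified human CD4+ T cells activated with anti-CD3 plus anti-CD28 and a Th17-inducing cytokine cocktail, with compound at serial concentrations versus no compound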
# Assay: IL-17 production from human Th17 cells;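 further: purified human CD4+ T cells activated with anti-CD3 plus anti-CD28 and a Th17-inducing cytokine cocktail, with compound at serial concentrations versus no compound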
# Type: cell-based
# Conditions: IL-17A in supernatant by ELISA after 6 days, human CD4+ T cells under Th17 differentiation
row,pIC50,SMILES
1,8.44,"Cc1c(NC(=O)c2cccc(C#N)c2)cnc2c1c([C@@H]1CCN(C(=O)CC3CCCC3)C(C)(C)C1)cn2C [Example 74, (R)-3-cyano-N-(3-(1-(2-cyclopentylacetyl)-2,2-dimethylpiperidin-4-yl)-1,4-dimethyl-1H-pyrrolo[2,3-b]pyridin-5-yl)benzamide]"
2,7.97,"Cn1cc(C2CCN(C(=O)CC3CCC3)CC2)c2c(C(F)(F)F)c(NC(=O)c3cccc(C#N)c3)cnc21 [Example 18, 3-cyano-N-(3-(1-(2-cyclobutylacetyl)piperidin-4-yl)-1-methyl-4-(trifluoromethyl)-1H-pyrrolo[2,3-b]pyridin-5-yl)benzamide]"
3,7.56,"CC(C)C(=O)N1CCC(c2cn(C)c3ncc(NC(=O)c4ccc(F)c(C#N)c4)c(C(F)(F)F)c23)CC1 [Example 9, 3-cyano-4-fluoro-N-(3-(1-isobutyrylpiperidin-4-yl)-1-methyl-4-(trifluoromethyl)-1H-pyrrolo[2,3-b]pyridin-5-yl)benzamide]"
4,7.92,"COc1cc(Cl)cc(C(=O)Nc2cnc3c(c([C@@H]4CCN(C(=O)C5CCCC5)C(C)(C)C4)cn3C)c2C)c1 [Example 63, (R)-3-chloro-N-(3-(1-(cyclopentane-carbonyl)-2,2-dimethylpiperidin-4-yl)-1,4-dimethyl-1H-pyrrolo[2,3-b]pyridin-5-yl)-5-methoxybenzamide]"
5,8.02,"Cc1c(NC(=O)c2cccc(C#N)c2)cnc2c1c(C1CCN(C(=O)c3cccc4c3CCC4)CC1)cn2C [Example 34, 3-cyano-N-(3-(1-(2,3-dihydro-1H-indene-4-carbonyl)piperidin-4-yl)-1,4-dimethyl-1H-pyrrolo[2,3-b]pyridin-5-yl)benzamide]"
